In paper PMC12198292, “Advancing in vitro assessment of iodide uptake inhibition: integrating a novel biotransformation pretreatment step” (Archives of Toxicology, 2025):
In brackets after ≈: the same amount, converted by molar mass. Read-outs that look alike come from different tables or passages of the source.

Columns and labels:
human NIS [1] = target: T1, human NIS (Homo sapiens, UniProt Q92911); test: NIS-inhibition assay (iodide uptake, Sandell–Kolthoff reaction) on HEK293T NIS 02; assay type: cell-based; design: host or cells: HEK293T (lentiviral transduction, puromycin selection, GFP sorting; lines NIS 02 and NIS C); settings: mean ± SD, ≥ 3 independent experiments, 2 h exposure, SK reaction; for IC50: read-out: NIS IC50 HEK293T NIS 02
T1 sequence (Q92911 1-643): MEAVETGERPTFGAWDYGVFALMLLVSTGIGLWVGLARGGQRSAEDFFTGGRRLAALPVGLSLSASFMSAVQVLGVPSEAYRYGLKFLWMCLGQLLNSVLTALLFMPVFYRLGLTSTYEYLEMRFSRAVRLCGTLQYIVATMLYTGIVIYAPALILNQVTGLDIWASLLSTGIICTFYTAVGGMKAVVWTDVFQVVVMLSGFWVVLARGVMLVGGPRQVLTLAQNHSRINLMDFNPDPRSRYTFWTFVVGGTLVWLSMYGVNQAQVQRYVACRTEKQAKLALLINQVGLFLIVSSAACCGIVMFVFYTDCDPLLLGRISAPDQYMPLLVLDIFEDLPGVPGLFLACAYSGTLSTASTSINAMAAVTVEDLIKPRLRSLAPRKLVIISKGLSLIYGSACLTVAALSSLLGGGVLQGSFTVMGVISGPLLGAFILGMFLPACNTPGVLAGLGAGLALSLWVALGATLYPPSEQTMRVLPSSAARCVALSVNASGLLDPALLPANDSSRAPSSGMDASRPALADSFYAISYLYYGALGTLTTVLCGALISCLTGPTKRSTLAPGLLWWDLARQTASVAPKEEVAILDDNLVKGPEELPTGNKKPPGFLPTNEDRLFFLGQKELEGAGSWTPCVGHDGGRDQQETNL

FRTL-5 cells = test: Neutral red uptake viability assay, FRTL-5; settings: mean±SD, 2 h exposure
[2] = design: method as in PubChem https://pubchem.ncbi.nlm.nih.gov/; settings: ref PubChem https://pubchem.ncbi.nlm.nih.gov/; cited from earlier work
[3] = ref PubChem https://pubchem.ncbi.nlm.nih.gov/; cited from earlier work
human NIS [4] = target: T1, human NIS; test: NIS-inhibition assay (iodide uptake, Sandell–Kolthoff reaction) on HEK293T NIS C; assay type: cell-based; design: host or cells: HEK293T (lentiviral transduction, puromycin selection, GFP sorting; lines NIS 02 and NIS C); settings: mean ± SD, ≥ 3 independent experiments; 2 h exposure; SK reaction
NIS = target: T2, NIS (Rattus norvegicus, UniProt Q63008); test: NIS-inhibition assay (iodide uptake, Sandell–Kolthoff reaction) on FRTL-5; assay type: cell-based; settings: mean ± SD, ≥ 3 independent experiments; 2 h exposure; SK reaction
T2 construct: the endogenously NIS-expressing rat FRTL-5 cell line; host or cells: FRTL-5 (CVCL_0265)
T2 sequence (Q63008 1-618): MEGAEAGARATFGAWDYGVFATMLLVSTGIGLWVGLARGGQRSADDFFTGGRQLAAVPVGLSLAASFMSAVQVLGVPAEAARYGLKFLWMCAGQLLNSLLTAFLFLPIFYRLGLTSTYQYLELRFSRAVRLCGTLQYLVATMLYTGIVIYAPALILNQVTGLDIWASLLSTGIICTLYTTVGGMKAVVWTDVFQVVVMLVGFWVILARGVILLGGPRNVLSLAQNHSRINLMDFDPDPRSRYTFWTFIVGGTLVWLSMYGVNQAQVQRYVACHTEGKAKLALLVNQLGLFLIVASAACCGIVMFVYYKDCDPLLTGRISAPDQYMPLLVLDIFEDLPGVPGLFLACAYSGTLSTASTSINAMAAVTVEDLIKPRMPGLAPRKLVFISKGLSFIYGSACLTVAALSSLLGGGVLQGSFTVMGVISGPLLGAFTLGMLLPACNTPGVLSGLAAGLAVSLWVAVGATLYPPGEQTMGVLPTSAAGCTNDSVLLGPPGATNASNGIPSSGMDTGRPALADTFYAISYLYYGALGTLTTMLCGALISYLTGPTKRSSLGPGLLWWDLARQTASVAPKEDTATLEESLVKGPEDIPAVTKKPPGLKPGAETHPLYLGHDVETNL

HEK293T NIS C cells = test: Neutral red uptake viability assay, HEK293T NIS C; settings: mean±SD, 2 h exposure
human NIS [5] = target: T1, human NIS; design: host or cells: HEK293T (lentiviral transduction, puromycin selection, GFP sorting; lines NIS 02 and NIS C); settings: hNIS-HEK293T-EPA, RAIU, cited from earlier work
[6] = design: method as in PubChem https://pubchem.ncbi.nlm.nih.gov/; settings: ref PubChem https://pubchem.ncbi.nlm.nih.gov/; cited from earlier work; remark: listed apart in the source
human NIS [7] = target: T1, human NIS; test: Biotransformation (BTS, rat S9)-augmented NIS-inhibition assay, HEK293T NIS02; settings: for IC20: three independent experiments; for effect of fully active BTS (W/S9, W/cof) on NIS inhibition versus control setups: two-way ANOVA, p < 0.05

Row | SMILES | NIS IC50 HEK293T NIS 02 (human NIS [1]) | NR IC20 FRTL-5 (FRTL-5 cells) | log Kow [2] | solubility in water [3] [µg/mL] | NIS IC50 HEK293T NIS C (human NIS [4]) | NIS IC50 FRTL-5 (NIS) | NR IC20 HEK293T NISC (HEK293T NIS C cells) | Henry‘s law [6] | also measured
1 | NC(Cc1cc(I)c(Oc2cc(I)c(O)c(I)c2)c(I)c1)C(=O)O [T4, 3,3′,5,5″-Tetraiodo-L-thyronine] | n.e and n.e. / n.e. | n.e. / n.e. | 0.16 | 0.162 (≈ 0.209 µM) | n.e and n.e. / n.e. | n.e and n.e. / n.e. | n.e. / n.e. |  | 
2 | Cc1cc(NS(=O)(=O)c2ccc(N)cc2)no1 [SMX, Sulfamethoxazole, reference compound] | n.e and n.e. / n.e. |  |  |  | n.e and n.e. / n.e. | n.e and n.e. / n.e. |  |  | 
3 | CCC(Cc1c(I)cc(I)c(N)c1I)C(=O)O (stereo not drawn) [IOP, Iopanoic acid, reference compound] | n.e and n.e. / n.e. | n.e. / n.e. |  | 348.3 (≈ 610 µM) | n.e and n.e. / n.e. | n.e and n.e. / n.e. | n.e. / n.e. |  | 
4 | CCCc1cc(=O)[nH]c(=S)[nH]1 [PTU, 6-Propylthiouracil, reference compound] | n.e and n.e. / n.e. | n.e. / n.e. |  |  | n.e and n.e. / n.e. | n.e and n.e. / n.e. | n.e. / n.e. | 1.1x10^-9 atm- m^3/mol | Data from literature NIS IC50 (human NIS [5]; ref Buckalew et al., 2020): n.e.; Data from literature NIS IC50 (human NIS [5]; ref Hallinger et al., 2017): n.e.
5 | N[C@@H](Cc1cc(I)c(Oc2ccc(O)c(I)c2)c(I)c1)C(=O)O [T3, 3,3′,5-Triiodo-L-thyronine] |  | n.e. / n.e. | 0.93 |  |  |  | n.e. / n.e. |  | 
6 | O=P(Oc1ccccc1)(Oc1ccccc1)Oc1ccccc1 [TPP, Triphenyl phosphate] |  | 92.6 ±24.1 / n.e. | 4.6 |  | n.e and n.e. / n.e. |  | n.e. / n.e. | 3.3x10^-6 atm- m^3/mol | IC50 (human NIS [5]; read-out: Data from literature NIS IC50, ref US-EPA, 2024): 50 µM; IC50 (human NIS [1]): 42.8 ± 18.9 µM; IC50 (NIS): 92.6 ± 24.1 µM; IC20 (human NIS [7]; read-out: NIS inhibition IC20 D S9, W/cof, 5 h preincubation with denatured S9 and cofactors): 9.97 ± 3.36 µM; IC20 (human NIS [7]; read-out: NIS inhibition IC20 SM, standard method without preincubation, run in parallel): 7.93 ± 4.47 µM; IC20 (human NIS [7]; read-out: NIS inhibition IC20 W/O S9, W/cof, 5 h preincubation without S9 fraction, with all cofactors): 17.5 ± 7.2 µM; effect of fully active BTS (W/S9, W/cof) on NIS inhibition versus control setups (human NIS [7]): no biotransformation-related effect changes were detected
7 | Oc1cccc(O)c1 [RSC, Resorcinol] |  | 4709.5 ±562 / n.e. | 0.8 |  | n.e and n.e./ n.e. |  | n.e./ n.e. | 9.9x10^-11 atm- m^3/mol | Data from literature NIS IC50 (human NIS [5]; ref Wang et al., 2019): n.e.; IC50 (human NIS [1]): 4060 ± 2050 µM; IC50 (NIS): 4710 ± 562 µM; effect of fully active BTS (W/S9, W/cof) on NIS inhibition versus control setups (human NIS [7]): no significant differences were observed
8 | CC1(C)S[C@@H]2[C@H](NC(=O)[C@H](N)c3ccccc3)C(=O)N2[C@H]1C(=O)O [AMP, Ampicillin, reference compound] | n.e and n.e./ n.e. | n.e./ n.e. |  |  | n.e and n.e./ n.e. | n.e and n.e./ n.e. | n.e./ n.e. |  | 
9 | O=C(O)c1ccccc1O [SA, Salicylic acid] | n.e and n.e. / n.e. | n.e. / n.e. | 2.26 |  | n.e and n.e. / n.e. | n.e and n.e. / n.e. | n.e. / n.e. |  | 
10 | NC(=O)N1c2ccccc2C=Cc2ccccc21 [CBZ, Carbamazepine, reference compound] | n.e and n.e. / n.e. |  |  | 18 (≈ 76.2 µM) | n.e and n.e./ n.e. | n.e and n.e./ n.e. | n.e./ n.e. | 1.1x10^-10 atm- m^3/mol | Data from literature NIS IC50 (human NIS [5]; ref US-EPA, 2024): n.e.; Data from literature NIS IC50 (human NIS [5]; ref Wang et al., 2019): n.e.
11 | S=C1NCCN1 [ETU, Ethylene thiourea] | n.e and n.e./ n.e. | n.e./ n.e. | -0.66 |  | n.e and n.e./ n.e. | n.e and n.e./ n.e. | n.e./ n.e. | 1.4x10^-11 atm- m^3/mol | 
12 | CC1=C[C@H]2O[C@@H]3[C@H](O)C[C@](C)([C@@]2(CO)[C@H](O)C1=O)[C@]31CO1 [DON, Deoxynivalenol] |  |  | -0.71 | 55000 (≈ 186000 µM) |  |  |  | 2.0x10^-14 atm- m^3/mol | 
13 | O=C(c1ccc(O)cc1O)c1ccc(O)cc1O [BP2, 2,2′-4,4′-Tetrahydroxy Benzophenone] | n.e and n.e./ n.e. | n.e. / n.e. |  | 8821 (≈ 35800 µM) | n.e and n.e./ n.e. | n.e and n.e. / n.e. | n.e./ n.e. | 3.6x10^-6 atm- m^3/mol | 
